Data published in patent US20060264347A1, “Antimicrobial composition” (priority 2005, published 2006).

Key:
C. albicans = assay: Zone of inhibition assay of coated sutures; type: cell-based; details: coated 2-0 polyglactin 910 suture, 37° C. 48 hr
Description: (§1) A series of USP standard size 2-0 uncoated polyglactin 910 sutures were coated with coating compositions containing LAE. LAE stock solution was made in ethanol at the concentration of 10%. The coating solutions were made by dissolving a L(−)lactide/glycolide copolymer containing 65 mole % lactide and 35 mole % glycolide (4.5%) and calcium stearate (4.5%) in ethyl acetate. Then, the LAE stock solution was added to the coating solution at sequential concentrations and mixed thoroughly. The sutures were hand coated by dipping into the coating solution containing antimicrobial composition and then air dried at room temperature for 8 hr. The antimicrobial efficacy was evaluated by zone of inhibition assay, in which the sutures were cut into a 5 cm section and inoculated with about 10^5 cfu/suture in a Petri dish, a portion of 20 ml of TSA tempered at 47° C. was added into the Petri dish. The inoculum was mix thoroughly with the medium and the suture was placed in the middle of the plate. The inoculated plates were incubated at 37° C. for 48 hr and then the zone of inhibition was measured with a digital caliper.
as §1, with “DIMPTS. DIMPTS” for “LAE. LAE”, “DIMPTS” for “LAE”

E. coli [1] = assay: Zone of inhibition assay of coated sutures; type: cell-based; details: coated 2-0 polyglactin 910 suture, 37° C. 48 hr
Description: as §1
as §1, with “DIMPTS. DIMPTS” for “LAE. LAE”, “DIMPTS” for “LAE”
(§2) A series of USP standard size 2-0 uncoated polyglactin 910 sutures were coated with coating compositions containing the combinations of LAE and DIMPTS. DIMPTS and LAE stock solutions were made in ethanol at concentration of 10%. The coating solutions were made by dissolving a L(−)lactide/glycolide copolymer containing 65 mole % lactide and 35 mole % glycolide (4.5%) and calcium stearate (4.5%) in ethyl acetate. Then, the DIMPTS and LAE stock solutions were added to the coating solution at sequential concentrations and mixed thoroughly. The sutures were hand coated by dipping into the coating solution containing antimicrobial composition and then air dried at room temperature for 8 hr. The antimicrobial efficacy and synergistic effect were evaluated by zone of inhibition assay, in which the sutures were cut into a 5 cm section and inoculated with about 10^5 cfu/suture in a Petri dish, a portion of 20 ml of TSA tempered at 47° C. was added into the Petri dish. The inoculum was mix thoroughly with the medium and the suture was placed in the middle of the plate. The inoculated plates were incubated at 37° C. for 48 hr and then the zone of inhibition was measured with a digital caliper.

S. aureus [2] = assay: Zone of inhibition assay of coated sutures; type: cell-based; details: coated 2-0 polyglactin 910 suture, 37° C. 48 hr
Description: as §1
A series of USP standard size 2-0 uncoated polyglactin 910 sutures were coated with coating compositions containing DIMPTS. DIMPTS stock solution was made in ethanol at the concentration of 10%. The coating solutions were made by dissolving a L(−)lactide/glycolide copolymer containing 65 mole % lactide and 35 mole % glycolide (4.5%) and calcium stearate (4.5%) in ethyl acetate. Then, the DIMPTS stock solution was added to the coating solution at sequential concentrations and mixed thoroughly. The sutures were hand coated by dipping into the coating solution containing antimicrobial composition and then air dried at room temperature for 8 hr. The antimicrobial efficacy was evaluated by zone of inhibition assay, in which the sutures were cut into a 5 cm section and inoculated with about 10^5 cfu/suture in a Petri dish, a portion of 20 ml of TSA tempered at 47° C. was added into the Petri dish. The inoculum was mix thoroughly with the medium and the suture was placed in the middle of the plate. The inoculated plates were incubated at 37° C. for 48 hr and then the zone of inhibition was measured with a digital caliper.
as §2

E. coli [3] = assay: In vitro antimicrobial efficacy, viable plate count after 24 hr culture; type: cell-based; details: 37° C. 24 hr, inoculum 10^6 CFU/ml
Description: (§3) The synergistic antimicrobial efficacy of the LAE and diiodomethyl-p-tolylsulfone ([…]) antimicrobial composition is illustrated by the results shown in Tables 1 and 2, and was determined by the following protocol. […] Sequential dilutions of the above two stock solutions were then prepared in sterile saline. […] Controls contained similar amounts of saline in the test culture with no LAE or […]. The test cultures were incubated at 37° C. for 24 hr, the total viable bacteria were numerated by plate count on Trypticase® soy agar (BBL) containing inactivating agent. The plates were incubated at 37° C. for 48 hr and reported as colony forming unit/ml (CFU/ml).

E. faecium = assay: as above; type: cell-based; details: 37° C. 24 hr, inoculum 10^6 CFU/ml
Description: as §3

P. aeruginosa = assay: as above; type: cell-based; details: 37° C. 24 hr, inoculum 10^6 CFU/ml
Description: as §3

S. aureus [4] = assay: as above; type: cell-based; details: 37° C. 24 hr, inoculum 10^6 CFU/ml
Description: as §3

C. albican = assay: as above; type: cell-based; details: 37° C. 24 hr, inoculum 10^6 CFU/ml
Description: as §3

[5] = animals and humans; cited from earlier work
[6] = rats; cited from earlier work

Cc1ccc(S(=O)(=O)C(I)I)cc1 [DIMPTS, diiodomethyl-p-tolylsulfone]
Zone of inhibition (mm) (C. albicans; 0.1% in coating solution): 3.3 mm
Zone of inhibition (mm) (C. albicans; 0.5% in coating solution): 3.6 mm
Zone of inhibition (mm) (C. albicans; 1% in coating solution): 8.4 mm
Zone of inhibition (mm) (E. coli [1]; 0.1% in coating solution): 0 mm
Zone of inhibition (mm) (E. coli [1]; 0.5% in coating solution): 0 mm
Zone of inhibition (mm) (E. coli [1]; 1% in coating solution): 1.0 mm
Zone of inhibition (mm) (S. aureus [2]; 0.1% in coating solution): 0 mm
Zone of inhibition (mm) (S. aureus [2]; 0.5% in coating solution): 3.0 mm
Zone of inhibition (mm) (S. aureus [2]; 1% in coating solution): 4.3 mm
CFU/ml (E. coli [3]; 10 ppm): 1.4 × 10^9 CFU/ml
CFU/ml (E. coli [3]; 200 ppm): 1.1 × 10^5 CFU/ml
CFU/ml (E. faecium; 0.5 ppm): 6 × 10^8 CFU/ml
CFU/ml (E. faecium; 5 ppm): 3 × 10^8 CFU/ml
CFU/ml (P. aeruginosa; 10 ppm): 1.0 × 10^9 CFU/ml
CFU/ml (P. aeruginosa; 200 ppm): 4 × 10^8 CFU/ml
CFU/ml (S. aureus [4]; 0.5 ppm): 1.2 × 10^9 CFU/ml
CFU/ml (S. aureus [4]; 5 ppm): 2.4 × 10^6 CFU/ml
CFU/ml (C. albican; 0.5 ppm): 1 × 10^8 CFU/ml

CCCCCCCCCCCC(=O)N[C@@H](CCCN=C(N)N)C(=O)OCC.Cl [LAE, ethyl ester of the lauramide of the arginine monohydrochloride]
toxicity [5]: completely harmless
Zone of inhibition (mm) (C. albicans; 0.5% in coating solution): 0 mm
Zone of inhibition (mm) (C. albicans; 1% in coating solution): 2.3 mm
Zone of inhibition (mm) (C. albicans; 2% in coating solution): 3.5 mm
absorption and metabolism [6]: fast absorption and metabolism into naturally-occurring amino acids and the lauric acid
Zone of inhibition (mm) (E. coli [1]; 0.5% in coating solution): 0 mm
Zone of inhibition (mm) (E. coli [1]; 1% in coating solution): 1.0 mm
Zone of inhibition (mm) (E. coli [1]; 2% in coating solution): 2.0 mm
Zone of inhibition (mm) (S. aureus [2]; 0.5% in coating solution): 0 mm
Zone of inhibition (mm) (S. aureus [2]; 1% in coating solution): 1.5 mm
Zone of inhibition (mm) (S. aureus [2]; 2% in coating solution): 3.2 mm
CFU/ml (E. coli [3]; 10 ppm): 1.1 × 10^9 CFU/ml
CFU/ml (E. faecium; 10 ppm): 5 × 10^7 CFU/ml
CFU/ml (P. aeruginosa; 10 ppm): 1.2 × 10^9 CFU/ml
CFU/ml (S. aureus [4]; 10 ppm): 1.1 × 10^9 CFU/ml
CFU/ml (C. albican; 10 ppm): 6 × 10^7 CFU/ml
